The record followed here is patent publication US20160095867A1, “BET INHIBITION THERAPY FOR HEART DISEASE” (DANA-FARBER CANCER INSTITUTE, INC., priority 2013, published 2016).

Data set [1] relates to mice subject to TAC. In words: TAC model with pre-established pathology, JQ1 begun day 18 post-TAC. Type of data set: in vivo, mouse. The source says: Adult mice were subjected to pressure overload using transverse aortic constriction (TAC). JQ1 or vehicle was begun on day 18 post-TAC, a time point when significant pathology has already developed (FIG. 11). […] (N=6-12 per group). […] For example, patients typically present with pre-existing or established cardiac hypertrophy and/or heart failure.

Data set [2] relates to Neonatal rat ventricular cardiomyocytes (NRVM). In words: Doxorubicin mediated apoptosis in cultured cardiomyocytes (TUNEL). Particulars: JQ1 250 nM 3 hours, then Doxo 1 μM 24 hours. Type of data set: cell-based. On the procedure:
Doxorubicin (Doxo) is an anthracycline compound commonly used as cytotoxic chemotherapy for cancer. Doxo causes dose-dependent toxicity to cardiomyocytes and can cause cardiac enlargement, fibrosis and heart failure in patients. Cardiotoxicity is dose-limiting for anthracyclines such as Doxorubicin and Daunorubicin. […] Neonatal rat ventricular cardiomyocytes (NRVM) were treated with or without JQ1 (250 nM) for 3 hours, followed by treatment±Doxo (1 μM) for another 24 hours. Cells were assayed for apoptosis by TUNEL staining and nuclei were counterstained with DAPI.

Data set [3] concerns NRVM. As to the kind of experiment: PE-mediated cardiomyocyte hypertrophy in NRVM (cell area measurement). Type of data set: cell-based, rat. Particulars: nanomolar doses of JQ1 (250 nM), PE 100 μM, 48 hours. On the procedure: (§1) NRVM were isolated from the hearts of 2 day old Sprague-Dawley rat pups (Charles River) and maintained under standard conditions as described (Haldar et al., 2010). The cells were differentially plated for 1.5 h in cell culture dishes to remove contaminating non-myocytes. Unless otherwise stated, NRVM were plated at a density of 10^5 cells/mL. Cells were initially plated in growth medium (DMEM supplemented with 5% FBS, 100 U/mL penicillin-streptomycin, and 2 mM L-glutamine) for 24-36 hours and maintained in serum-free media thereafter (DMEM supplemented with 0.1% BSA, 1% insulin-transferrin-selenium liquid media supplement (Sigma 13146), 100 U/mL penicillin-streptomycin, and 2 mM L-glutamine). Media was changed every 2-3 days. Prior to stimulation with agonists, NRVM were maintained in serum-free medium for 48-72 hours. For hypertrophic stimulation, NRVM were incubated with JQ1 versus DMSO at indicated concentrations for 6 h followed by stimulation with PE (100 μM) for indicated timepoints.
NRVM were plated on glass coverslips in 6-well dishes at a density of 10^5 cells/mL. After treatments, cells were briefly fixed in PBS containing 2% PFA, permeabilized with PBST/0.1% Triton X-100, and blocked in PBST/5% horse serum. Primary antibody was anti-sarcomeric α-actinin (Sigma A7811) at 1:800. Fluorophore-tagged anti-mouse secondary antibody (α-mouse Alexa 488 green) was used at 1:1000 dilution. Coverslips were mounted on glass slides with mounting media containing DAPI. Quantitation of cardiomyocyte cell surface area was performed on α-actinin-stained cardiomyocytes using fluorescent microscopy and NIH Image J software as previously described (Liang et al., 2001). Analysis consisted of at least 100 cardiomyocytes in 20-30 fields at 400× magnification. This process was replicated in a least three independent experiments, and the data were combined.

In data set [4] the test system is NRVM. In words: PE-mediated pathologic gene induction in NRVM (qRT-PCR, gene expression profiling). The class given is cell-based, rat. On the procedure:
as §1
For tissue RNA, a 10-20 mg piece of mouse heart tissue was preserved in RNA Later stabilization reagent (Qiagen) followed by mechanical disruption/homogenization in PureZOL (BioRad) on a TissueLyser (Qiagen) using stainless steel beads (Qiagen). The aqueous phase was extracted with chloroform. RNA was purified from the aqueous phase using the Aurum purification kit (BioRad #732-6830) following manufacturer's instructions. For cellular samples, total RNA from NRVM was isolated using the High Pure RNA isolation kit (Roche #11828665001) with on-column DNAase treatment according to manufacturer's directions. Purified RNA was reverse transcribed to complementary DNA using the iScript™ RT Supermix (Biorad #170-8841) following manufacturer's protocol. Quantitative real-time PCR was performed using TaqMan chemistry (Fast Start Universal Probe Master (Roche cat#4914058001) and labeled probes from the Roche Universal Probe Library System) on a Roche LightCycler. Relative expression was calculated using the AACt-method with normalization to constitutive genes as indicated.
To determine the transcriptional effects of BET bromodomain inhibition during hypertrophic transformation, gene expression profiling (GEP) studies were performed in cultured NRVM at baseline and after PE stimulation (1.5, 6, 48 h) in the presence or absence of JQ1. These three timepoints were assessed to capture induction of early response genes such as c-Myc (Starksen et al., 1986) and the final hypertrophic gene program. […] A heat map of genes selected based on the highest magnitude of PE-mediated changes illustrates each of these clusters (FIG. 3A). […]
(In general: Real-time PCR tracks product formation cycle by cycle.)

Data set [5] can be described thus: Treadmill endurance exercise capacity in mice. The class given is in vivo, mouse. Particulars: JQ1 50 mg/kg/day IP, 2-3 weeks (17 days). The source says: For transthoracic echocardiography, mice were anesthetized with 1% inhalational isofluorane and imaged using the Vevo 770 High Resolution Imaging System (Visual Sonics, Inc.) and the RMV-707B 30 MHz probe. Measurements were obtained from M-mode sampling and integrated EKV images taken in the LV short axis at the mid-papillary level (Haldar et al., 2010). Measurements of pressure gradients across the constricted portion of the aorta were obtained by high frequency Doppler as previously described (Liu et al., 2012). Conscious tail-vein systolic blood pressure was measured using the BP2000 Blood Pressure Analysis System (Visitech Systems, Inc.) as recommended by the manufacturer. To allow mice to adapt to the apparatus, we performed daily blood pressure measurements for one week prior to beginning experiments. Treadmill endurance exercise testing was performed on a motorized mouse treadmill (Columbus Instruments) as previously described (Haldar et al., 2012).

Regarding `Cc1sc2c(c1C)C(c1ccc(Cl)cc1)=N[C@@H](CC(=O)OC(C)(C)C)c1nnc(C)n1-2` [JQ1], in data set [1], the “progression of LV cavity dilation” value is given as “significantly attenuates”, the “progression of LV systolic dysfunction” value is listed as “significantly attenuates”, the “progression of LV wall thickening” value is “significantly attenuates” and the progression of cardiomegaly result is “significantly attenuates”. Besides, the “Doxo induced cardiotoxicity (apoptosis, TUNEL positive nuclei)” value in data set [2] was “blocks”. In data set [3], the “phenylephrine (PE) mediated cellular hypertrophy (cardiomyocyte area)” value is on record as “significantly blocked”. Besides, the “PE-mediated gene induction, global gene expression profiling” value in data set [4] (500 nM JQ1, 100 μM PE, 1.5, 6, 48 h) was “attenuate or completely abrogate”. In data set [4] (JQ1 500 nM, PE 100 μM), the “PE-mediated c-myc induction (qRT-PCR)” value is “does not suppress” and the “PE-mediated induction of IL6 (qRT-PCR)” value was “significantly attenuated”. Moreover, in data set [4] (JQ1 500 nM, PE 100 μM, 48 h), the “PE mediated pathologic gene induction (hypertrophic marker genes, qRT-PCR)” value was “significantly blocked”. For the same compound, in data set [5], the “endurance exercise capacity (time to exhaustion)” value is “preserved endurance exercise capacity”.
